From ChEMBL document CHEMBL1130513, “New hepatoprotective saponins, bupleurosides III, VI, IX, and XIII, from Chinese Bupleuri Radix: Structure-requirements for the cytoprotective activity in primary cultured rat hepatocytes” (1997)

What was measured:
Assay type in all cases: functional
Settings in all cases: Hepatocyte
[1] = species on record: Rattus norvegicus; experiment: In vitro inhibitory effect on D-Galactosamine induced cytotoxicity in primary cultured rat hepatocytes at 30 ug/mL
[2] = species on record: Rattus norvegicus; experiment: In vitro inhibitory effect on D-Galactosamine induced cytotoxicity in primary cultured rat hepatocytes at 1 ug/mL
[3] = species on record: Rattus norvegicus; experiment: In vitro inhibitory effect on D-Galactosamine induced cytotoxicity in primary cultured rat hepatocytes at 10 ug/mL
[4] = species on record: Rattus norvegicus; experiment: In vitro inhibitory effect on D-Galactosamine induced cytotoxicity in primary cultured rat hepatocytes at 3 ug/mL
[5] = species on record: Rattus norvegicus; experiment: In vitro inhibitory effect on D-Galactosamine induced cytotoxicity in primary cultured rat hepatocytes at 0.3 ug/mL

| SMILES | inhibition at 30 µg/mL [1] [%] | inhibition at 1 µg/mL [2] [%] | inhibition at 10 µg/mL [3] [%] | inhibition at 3 µg/mL [4] [%] | inhibition at 0.3 µg/mL [5] [%] |
| --- | --- | --- | --- | --- | --- |
| C[C@@H]1O[C@@H](O[C@@H]2[C@H](O)[C@@H](O)[C@H](OC3CC[C@@]4(C)C(CC[C@]5(C)[C@@H]4[C@H](O)C=C4C6CC(C)(C)CC[C@]6(CO)[C@@H](O)C[C@]45C)C3(C)C)O[C@@H]2CO[C@@H]2O[C@H](CO)[C@@H](O)[C@H](O)[C@H]2O)[C@H](O)[C@H](O)[C@H]1O (stereo not given in full) | -6.5 | -5.1 | -3.2 | -3.4 | -2.3 |
| C[C@H]1O[C@@H](O[C@H]2CC[C@@]3(C)C(CC[C@]4(C)C3C=C[C@]35OC[C@@]6(CCC(C)(C)CC63)[C@@H](O)C[C@]54C)[C@]2(C)CO)[C@H](O)[C@@H](O[C@@H]2O[C@H](CO)[C@@H](O)[C@H](O)[C@H]2O[C@@H]2O[C@H](CO)[C@@H](O)[C@H](O)[C@H]2O)[C@H]1O (stereo not given in full) [BUPLEUROSIDE I] | -12.2 | -6.5 | -7.8 | -7.8 | -5.4 |
| C[C@H]1O[C@@H](O[C@H]2CC[C@@]3(C)C(CC[C@]4(C)C3C=C[C@]35OC[C@@]6(CCC(C)(C)CC63)[C@@H](O)C[C@]54C)[C@]2(C)CO)[C@H](O)[C@@H](O[C@@H]2O[C@H](CO)[C@@H](O)[C@H](O)[C@H]2O)[C@H]1O (stereo not given in full) | -14.8 | -7.1 | -12.7 | -11.6 | -3.6 |
| CO[C@@H]1C=C2C3CC(C)(C)CC[C@]3(CO)[C@@H](O)C[C@@]2(C)[C@]2(C)CCC3[C@](C)(CCC(O[C@@H]4O[C@H](CO[C@@H]5O[C@H](CO)[C@@H](O)[C@H](O)[C@H]5O)[C@H](O[C@@H]5O[C@@H](C)[C@H](O)[C@@H](O)[C@H]5O)[C@H](O)[C@H]4O)[C@@]3(C)CO)C12 (stereo not given in full) | 4.8 | 1.2 | 2.9 | 3.5 | 1.5 |
| CO[C@@H]1C=C2C3CC(C)(C)CC[C@]3(CO)[C@@H](O)C[C@@]2(C)[C@]2(C)CCC3C(C)(C)C(O[C@@H]4O[C@H](CO[C@@H]5O[C@H](CO)[C@@H](O)[C@H](O)[C@H]5O)[C@H](O[C@@H]5O[C@@H](C)[C@H](O)[C@@H](O)[C@H]5O)[C@H](O)[C@H]4O)CC[C@]3(C)[C@@H]12 (stereo not given in full) | 8.1 | 9.7 | 11.1 | 4.5 | 10.3 |
| CO[C@@H]1C=C2C3CC(C)(C)CC[C@]3(CO)[C@H](O)C[C@@]2(C)[C@]2(C)CCC3[C@](C)(CCC(O[C@@H]4O[C@H](C)[C@H](O)[C@H](O[C@@H]5O[C@H](CO)[C@@H](O)[C@H](O)[C@H]5O)[C@H]4O)[C@@]3(C)CO)C12 (stereo not given in full) | -9.9 | -4 | -8.3 | -6.9 | 3.6 |
| C[C@H]1O[C@@H](OC2CC[C@@]3(C)C(CC[C@]4(C)C3C=CC3=C5CC(C)(C)CC[C@]5(CO)[C@H](O)C[C@]34C)[C@]2(C)CO)[C@H](O)[C@@H](O[C@@H]2O[C@H](CO)[C@@H](O)[C@H](O)[C@H]2O)[C@H]1O (stereo not given in full) | 8.4 | 6.1 | 5.5 | 5.3 | 2.7 |
| C[C@@H]1O[C@@H](O[C@H]2[C@@H](O)[C@@H](CO[C@@H]3O[C@H](CO)[C@@H](O)[C@H](O)[C@H]3O)O[C@@H](OC3CC[C@@]4(C)C(CC[C@]5(C)C4C=CC4=C6C[C@@](C)(CO)CC[C@]6(CO)[C@H](O)C[C@]45C)[C@]3(C)CO)[C@@H]2O)[C@H](O)[C@H](O)[C@H]1O (stereo not given in full) [BUPLEUROSIDE XII] | 0.8 | 0.3 | 2 | -0.8 | 0.1 |
| C[C@@H]1O[C@@H](O[C@@H]2[C@H](O)[C@@H](O)[C@H](O[C@H]3CC[C@@]4(C)C(CC[C@]5(C)C4C(=O)C=C4C6CC(C)(C)CC[C@]6(CO)[C@@H](O)C[C@]45C)C3(C)C)O[C@@H]2CO[C@@H]2O[C@H](CO)[C@@H](O)[C@H](O)[C@H]2O)[C@H](O)[C@H](O)[C@H]1O (stereo not given in full) [BUPLEUROSIDE VII] | 3.2 | 2.5 | 2.2 | 4.3 | -0.6 |
| C[C@H]1O[C@@H](OC2CC[C@@]3(C)C(CC[C@]4(C)C3C=C[C@]35OC[C@@]6(CCC(C)(C)CC63)[C@@H](O)C[C@]54C)C2(C)C)[C@H](O)[C@@H](O[C@@H]2O[C@H](CO)[C@@H](O)[C@H](O)[C@H]2O)[C@H]1O (stereo not given in full) | -30.6 | -17.1 | -29.2 | -26.9 | -12 |
| C[C@H]1O[C@@H](O[C@H]2CC[C@@]3(C)C(CC[C@]4(C)C3C=C[C@]35OC[C@@]6(CCC(C)(C)CC63)[C@H](O)C[C@]54C)[C@]2(C)CO)[C@H](O)[C@@H](O[C@@H]2O[C@H](CO)[C@@H](O)[C@H](O)[C@H]2O)[C@H]1O (stereo not given in full) | -5.3 | 2.3 | -4.3 | -4.2 | 3.9 |
